2 compounds from patent US20230129034A1, “TREATMENT OF DISEASE WITH ESTERS OF SELECTIVE RXR AGONISTS” (Io Therapeutics, Inc., priority 2017, published 2023) can be followed below.

One series has as its system breast cancer cells. Briefly: Proliferation of breast cancer cells in vitro. Type of series: cell-based.
A short description of series [1]: Cmax after oral doses of IRX4204. Particulars: in vivo, 24 mg/m2; oral doses of 24 mg/m^2/day.
A short description of series [2]: Thyroid function in human subjects treated with IRX4204. Format: in vivo.
Series [3] deals with oligodendrocyte differentiation and remyelination. As to the kind of experiment: In vitro measures of oligodendrocyte differentiation and remyelination. Type of series: cell-based.
In series [4] the target is T1, RARβ (Homo sapiens, UniProt P10826).
T1 construct: expressed in transfected cells; host or cells: CV-1
As to the kind of experiment: RAR transactivation assay (ER-RAR fusion, ERE-tk-Luc reporter, CV-1 cells). Type of series: cell-based. Particulars: 20 hours, luciferase activity. The text has this:
(§1) Data are mean values ± SE from five independent experiments.
T1 sequence (P10826 183-417 limits assumed, species assumed): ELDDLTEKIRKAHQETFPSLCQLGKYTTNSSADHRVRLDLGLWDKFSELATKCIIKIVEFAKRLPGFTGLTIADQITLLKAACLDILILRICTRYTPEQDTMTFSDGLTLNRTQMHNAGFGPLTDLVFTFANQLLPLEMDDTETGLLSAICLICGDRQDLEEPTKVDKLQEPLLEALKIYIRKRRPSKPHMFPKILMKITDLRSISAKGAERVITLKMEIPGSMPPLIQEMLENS

Another series deals with T2, RARγ (Homo sapiens, UniProt P13631).
T2 construct: expressed in transfected cells; host or cells: CV-1
The description is as above. Format: cell-based. Particulars: 20 hours, luciferase activity.
From the text: as §1

The target in series [5] is T3, RARβ (Homo sapiens, UniProt P10826).
T3 construct: made in house; host or cells: SF21 insect cells (baculovirus)
Briefly: Competitive displacement of [3H]-ATRA from purified receptor. Particulars: 5 nM [3H]-ATRA; read-out: RAR Binding Affinity Ki (nM) RARβ. From the text: Standard errors (±) among independent experiments are indicated.
T3 sequence (P10826 whole entry, species assumed): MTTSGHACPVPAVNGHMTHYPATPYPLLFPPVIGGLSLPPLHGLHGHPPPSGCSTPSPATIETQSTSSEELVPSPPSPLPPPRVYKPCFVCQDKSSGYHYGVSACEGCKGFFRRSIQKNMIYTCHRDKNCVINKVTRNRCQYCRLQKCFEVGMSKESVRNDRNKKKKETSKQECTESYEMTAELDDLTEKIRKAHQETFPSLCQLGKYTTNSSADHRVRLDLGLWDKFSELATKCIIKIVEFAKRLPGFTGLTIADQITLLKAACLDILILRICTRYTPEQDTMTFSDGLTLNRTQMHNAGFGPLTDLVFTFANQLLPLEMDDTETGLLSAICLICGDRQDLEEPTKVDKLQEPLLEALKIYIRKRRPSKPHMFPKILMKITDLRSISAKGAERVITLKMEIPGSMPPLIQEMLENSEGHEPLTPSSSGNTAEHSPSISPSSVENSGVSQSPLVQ

The test system of another series is PPARy/RXR. Briefly: Permissive heterodimer transactivation assay, CV-1 cells, 3x(rAOX/DR1)-tk-Luc. Type of series: cell-based. Particulars: 20 hr, luciferase vs rosiglitazone. From the text: For PPARy: CV-1 cells were transfected with 3x(rAOX/DR1)-tk-Luc reporter gene and an expression vector for PPARy. For FXR:CV-1 cells were transfected with 3x(IBABP/IRI)-tk-Luc reporter gene and vectors for FXR and RXRα. For LXR:CV-1 cells were transfected with 3x(PLTP/LXRE)-tk-Luc reporter gene with vectors for LXRα or LXRβ. For Nurr1: COS7 cells were transfected with 3xNBRE-tk-luc reporter gene and full length Nurr-1 with or without full-length RXRα plasmid. […] Luciferase data were normalized to co-transfected β-gal activity. Luciferase activity was expressed as percent of maximal activity obtained using specific agonists. Rosiglitazone (PPARy), GW4064 (FXR), T0901317 (LXR).

T2 sequence (P13631 185-419 limits assumed, species assumed): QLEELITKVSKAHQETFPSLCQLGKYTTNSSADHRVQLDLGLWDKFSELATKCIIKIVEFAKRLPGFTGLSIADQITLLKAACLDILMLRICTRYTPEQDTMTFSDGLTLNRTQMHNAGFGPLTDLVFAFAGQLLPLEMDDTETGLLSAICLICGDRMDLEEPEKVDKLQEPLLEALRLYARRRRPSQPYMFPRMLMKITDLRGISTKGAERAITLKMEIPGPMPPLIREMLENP

As to `CC(/C=C/[C@@H]1C[C@]1(C)c1ccc2c(c1)C(C)(C)CCC2(C)C)=C\C(=O)O` [IRX4204, 3,7-dimethyl-6(S),7(S)-methano,7-[1,1,4,4-tetramethyl-1,2,3,4-tetrahydronaphth-7-yl]2(E),4(E) heptadienoic acid], the “inhibition of proliferation of breast cancer cells” value in the series with breast cancer cells (10 nM) is recorded as “observably inhibit the proliferation”; in the series on breast cancer cells (100 nM), “substantial improvement in effectiveness”. The compound further showed a Cmax in series [1] of 219 nM. Also, in series [2], the circulating thyroxine levels entry is given as “reduction in circulating thyroxine levels”. In series [2], the “plasma levels of TSH” value is listed as “reduction in plasma levels of TSH”. Besides, the “concentration with marginal activity detected” value in series [3] is 1 pM.
As to `CCOC(=O)/C=C(C)/C=C/[C@@H]1C[C@]1(C)c1ccc2c(c1)C(C)(C)CCC2(C)C` [IRX4204EE, 3,7-dimethyl-6(S),7(S)-methano,7-[1,1,4,4-tetramethyl-1,2,3,4-tetrahydronaphth-7-yl]2(E),4(E) heptadienoic ethyl ester], the EC50 on RARβ [4] and on RARγ was above 1000 nM in each case. Also, the Ki on RARβ [5] is above 1000 nM. The “activation of PPARy/RXR heterodimer” value in the series on PPARy/RXR is listed as “very little activity”.
